Data taken from patent publication US20260297129A1, “PEPTIDES AS SELECTIVE IL-23 RECEPTOR INHIBITORS” (SANOFI, priority 2023, published 2026).
pIC50: −log10 of the molar value. Read-outs that look alike come from different tables or passages of the source. Numbered stars: 1 amine (or outer) side, 2 acyl side, 3 side chain; on linkers, the order of the positions; unused ones are H or OH. Bridge positions count the residues as written; N and C are the ends. Square brackets hold non-standard residues; d marks the D form. Peptide text beside a SMILES is read from it. * marks the point of attachment. Lys(Me,(CH2)4NMe(CH2)5CO) = CN(CCCCCC(=O)[*:3])CCCCN(C)CCCC[C@H](N[*:1])C(=O)[*:2]; X2 = O=C(Cc1ccc(-c2ccc(CC(=O)[*:2])cc2)cc1)[*:1]; Trp(7-Me) = Cc1cccc2c(C[C@H](N)C(=O)O)c[nH]c12; 2Nal = N[C@@H](Cc1ccc2ccccc2c1)C(=O)O; 3Pal = N[C@@H](Cc1cccnc1)C(=O)O; AEEEA = NCCOCCOCCOCC(=O)O; Thp = NC1(C(=O)O)CCOCC1; Me2NCH2CH2 = CN(C)CC*; Aib = CC(C)(N)C(=O)O; Sar = CNCC(=O)O

Columns and labels:
human IL-23R = target: T1, human IL-23R (Homo sapiens, UniProt Q5VWK5); assay: Inhibition of IL-23 binding to IL-23R as measured by ELISA (Table 8); settings: human IL23 coated 1 μg/ml; human IL-23R-Fc 0.1 μg/ml; 60 min; read-out: Human ELISA IL23/IL23R IC50
T1 sequence (Q5VWK5 24-353 limits assumed): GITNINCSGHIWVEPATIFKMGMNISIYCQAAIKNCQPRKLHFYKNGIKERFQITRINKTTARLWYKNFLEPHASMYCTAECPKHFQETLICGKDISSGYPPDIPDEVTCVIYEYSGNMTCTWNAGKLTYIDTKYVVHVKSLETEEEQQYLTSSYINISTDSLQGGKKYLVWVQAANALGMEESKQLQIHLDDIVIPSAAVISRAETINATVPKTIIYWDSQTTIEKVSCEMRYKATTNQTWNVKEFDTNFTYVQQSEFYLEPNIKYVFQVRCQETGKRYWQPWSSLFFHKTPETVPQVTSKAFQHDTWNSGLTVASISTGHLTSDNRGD

[1] = Chemical stability (relative purity loss) of peptide compounds in buffer formulations (Table 6); type: physicochemical; settings: 2° C. and 37° C.
In short: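 Compounds at 0.5 mg/mL in 50 mM HCl pH 1.2, 50 mM phosphate pH 6.5 or pH 7.4, each with acetonitrile (3:1), stored 24 hours at 2° C and 37° C. Purity measured by UHPLC-UV before and after. Stability expressed as relative purity loss.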

[2] = Solubility of peptide compounds in buffer formulations (Table 5); type: physicochemical; settings: target 1 mg/ml
In short: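 Solubility was quantified by UHPLC-UV, comparing 1:10-diluted filtrate peak areas with a DMSO reference standard and correcting for extinction coefficients. Samples were prepared from dried DMSO stock at 1 mg/mL nominal in pH 1.2 HCl, pH 6.5 or pH 7.4 phosphate (50 mM), and agitated 2 h.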

[3] = Protease stability in simulated gastric fluids (FaSSGF) (Table 7); type: in vitro ADME; settings: fassgf with pepsin, 60 min, 37° C., read-out: Remaining percentage of peptide compound, FaSSGF 60 (min)
In short: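 Peptides at 1 μM final were incubated at 37 °C in simulated gastric fluid with pepsin (320 mg per 100 mL SGF concentrate). Samples were quenched with ethanol (0.1% HCOOH) at 0, 60, 120 and 240 min and analysed by LC-MS/MS. Percent remaining is the peak area relative to T0 (100%).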

[4] = 50 mM phosphate buffer pH 6.5 + acetonitrile (3:1), read-out: Chemical stability (relative purity loss), Buffer pH 6.5
[5] = 50 mM phosphate buffer pH 7.4 + acetonitrile (3:1), read-out: Chemical stability (relative purity loss), Buffer pH 7.4
[6] = 50 mm hcl + acetonitrile, Buffer pH 1.1 (head; method: 50 mM HCl pH 1.2 + acetonitrile 3:1), read-out: Chemical stability (relative purity loss), Buffer pH 1.1
[7] = Buffer pH 1.1 (head; method: 50 mM HCl pH 1.2), 2 h agitation, read-out: Solubility, Buffer pH 1.1
[8] = aqueous buffer, 50 mM phosphate buffer pH 6.5, 2 h agitation, read-out: Solubility, Buffer pH 6.5
[9] = aqueous buffer, 50 mM phosphate buffer pH 7.4, 2 h agitation, read-out: Solubility, Buffer pH 7.4

Row | pIC50 (human IL-23R) | degraded at 24 h [1, 4] | degraded at 24 h [1, 5] | degraded at 24 h [1, 6] | solubility at 2 h [2, 7] | solubility at 2 h [2, 8] | solubility at 2 h [2, 9] | remaining at 1 h, 1 µM [3] | SMILES
1 | 9.34 | 0% | 0% | 8.6% | ≥ 1200 µg/mL | ≥ 1280 µg/mL | ≥ 1270 µg/mL | 100% | Cc1cccc2c(C[C@@H]3NC(=O)COCCOCCOCCNC(=O)CC[C@@H](C(=O)N[C@@H](CC(N)=O)C(=O)N[C@@H](Cc4cccnc4)C(=O)N(C)CC(N)=O)NC(=O)C(C)(C)NC(=O)[C@H](Cc4ccc5ccccc5c4)NC(=O)[C@H](Cc4ccc(OCCN(C)C)cc4)NC(=O)C4(CCOCC4)NC(=O)[C@H](CCC(N)=O)NC3=O)c[nH]c12 [compound 14] ([AEEEA][Trp(7-Me)]Q[Thp]Y(Me2NCH2CH2)[2Nal][Aib]EN[3Pal][Sar]-NH2; lactam N-8)
2 | 9.20 | 0% | 0.4% | 7.1% | ≥ 990 µg/mL | ≥ 920 µg/mL | ≥ 920 µg/mL | 87% | Cc1cccc2c(C[C@@H]3NC(=O)Cc4ccc(cc4)-c4ccc(cc4)CC(=O)NCCCC[C@@H](C(=O)N[C@@H](CC(N)=O)C(=O)N[C@@H](Cc4cccnc4)C(=O)N(C)CC(N)=O)NC(=O)C(C)(C)NC(=O)[C@H](Cc4ccc5ccccc5c4)NC(=O)[C@H](Cc4ccc(OCCN(C)C)cc4)NC(=O)C4(CCOCC4)NC(=O)[C@H](CCC(N)=O)NC3=O)c[nH]c12 [compound 15] ([Trp(7-Me)]Q[Thp]Y(Me2NCH2CH2)[2Nal][Aib]KN[3Pal][Sar]-NH2; linker N-7 via X2)
3 | 9.17 | 0% | 0% | 3.8% | ≥ 1060 µg/mL | ≥ 980 µg/mL | ≥ 990 µg/mL | 100% | CC(=O)NCCCC[C@@H]1NC(=O)[C@H](Cc2c[nH]c3c(C)cccc23)NC(=O)CCCCCN(C)CCCCN(C)CCCC[C@@H](C(=O)N[C@@H](CC(N)=O)C(=O)N[C@@H](Cc2cccnc2)C(=O)N(C)CC(N)=O)NC(=O)C(C)(C)NC(=O)[C@H](Cc2ccc3ccccc3c2)NC(=O)[C@H](Cc2ccc(OCCN(C)C)cc2)NC(=O)C2(CCOCC2)NC1=O [compound 18] ([Trp(7-Me)]K(Ac)[Thp]Y(Me2NCH2CH2)[2Nal][Aib][Lys(Me,(CH2)4NMe(CH2)5CO)]N[3Pal][Sar]-NH2; lactam N-7)
